Source: patent US20230286948A1 (HUYABIO International, LLC, priority 2022, published 2023)

Each compound was assayed against MLL1-WDR5 protein-protein interaction (Homo sapiens (Human), UniProt P61964) (assay: WDR5 TR-FRET assay (MLL1-WDR5 PPI inhibition)). Details: 5 nM WDR5 protein, 10 nM peptide, read-out: IC50 (nM), MLL1-WDR5 PPI inhibitory activity.
Assay type: binding
Method: WDR5 TR-FRET Assay Procedure: Stock compounds were transferred to the assay plate by Echo Liquid Handler. […] Stock compounds were incubated with WDR5 protein for 30 min at room temperature. Plates were covered, protected from light and incubated for 60 min at room temperature, after adding the peptide and Tb-Ab. EnVision Multimode Plate Reader (PerkinElmer) was used for the TR-FRET assay with excitation wavelength at 340 nm and emission wavelength at 495 and 520 nm. The ratio of the 520/495 wavelengths were used to assess the degree of the FRET signal. IC50 was calculated by fitting the inhibition data using XLfit software to sigmoidal dose-response model.

`CN1CCN(c2ccc(-n3cc(C(=O)NCCCN4CCOCC4)nn3)cc2NC(=O)c2cnc(Cl)cc2N)CC1` [Example 22, 4-amino-6-chloro-N-(2-(4-methylpiperazin-1-yl)-5-(4-((3-morpholinopropyl)carbamoyl)-1H-1,2,3-triazol-1-yl)phenyl)nicotinamide] and `CN1CCN(c2ccc(-n3cc(C(=O)NCCCN4CCOCC4)nn3)cc2NC(=O)c2cnc(Cl)cc2N(C)C)CC1` [Example 23, 6-chloro-4-(dimethylamino)-N-[2-(4-methylpiperazin-1-yl)-5-[4-(3-morpholinopropylcarbamoyl)triazol-1-yl]phenyl]pyridine-3-carboxamide] cannot be ordered by IC50: > 10000 nM for the first, > 10000 nM for the second.

`Cc1cc(N)ncc1C(=O)Nc1cc(-n2cc(C(=O)NCCCN3CCOCC3)nn2)ccc1N1CCN(C)CC1` [Example 24, 6-amino-4-methyl-N-(2-(4-methylpiperazin-1-yl)-5-(4-((3-morpholinopropyl)carbamoyl)-1H-1,2,3-triazol-1-yl)phenyl)nicotinamide] and `Cc1cc(F)ncc1C(=O)Nc1cc(-n2cc(C(=O)NCCCN3CCOCC3)nn2)ccc1N1CCN(C)CC1` [Example 25, 6-fluoro-4-methyl-N-(2-(4-methylpiperazin-1-yl)-5-(4-((3-morpholinopropyl)carbamoyl)-1H-1,2,3-triazol-1-yl)phenyl)nicotinamide] cannot be ordered by IC50: > 10000 nM for the first, > 10000 nM for the second.

`Cc1ncc(C(=O)Nc2cc(-n3cc(C(=O)NCCCN4CCOCC4)nn3)ccc2N2CCN(C)CC2)c(C(F)(F)F)n1` [Example 26, 2-methyl-N-(2-(4-methylpiperazin-1-yl)-5-(4-((3-morpholinopropyl)carbamoyl)-1H-1,2,3-triazol-1-yl)phenyl)-4-(trifluoromethyl)pyrimidine-5-carboxamide] and `CSc1ncc(C(=O)Nc2cc(-n3cc(C(=O)NCCCN4CCOCC4)nn3)ccc2N2CCN(C)CC2)c(C(F)(F)F)n1` [Example 27, N-(2-(4-methylpiperazin-1-yl)-5-(4-((3-morpholinopropyl)carbamoyl)-1H-1,2,3-triazol-1-yl)phenyl)-2-(methylthio)-4-(trifluoromethyl)pyrimidine-5-carboxamide] cannot be ordered by IC50: > 10000 nM for the first, > 10000 nM for the second.

`CN1CCN(c2ccc(-n3cc(C(=O)NCCCN4CCOCC4)nn3)cc2NC(=O)c2cnc([S+](C)[O-])nc2C(F)(F)F)CC1` (centres unmarked) [Example 28, N-(2-(4-methylpiperazin-1-yl)-5-(4-((3-morpholinopropyl)carbamoyl)-1H-1,2,3-triazol-1-yl)phenyl)-2-(methylsulfinyl)-4-(trifluoromethyl)pyrimidine-5-carboxamide] and `CCOc1ncc(C(=O)Nc2cc(-n3cc(C(=O)NCCCN4CCOCC4)nn3)ccc2N2CCN(C)CC2)c(C(F)(F)F)n1` [Example 29, 2-ethoxy-N-(2-(4-methylpiperazin-1-yl)-5-(4-((3-morpholinopropyl)carbamoyl)-1H-1,2,3-triazol-1-yl)phenyl)-4-(trifluoromethyl)pyrimidine-5-carboxamide] cannot be ordered by IC50: > 10000 nM for the first, > 10000 nM for the second.

`COc1nc(SC)ncc1C(=O)Nc1cc(-n2cc(C(=O)NCCCN3CCOCC3)nn2)ccc1N1CCN(C)CC1` [Example 30, 4-methoxy-N-(2-(4-methylpiperazin-1-yl)-5-(4-((3-morpholinopropyl)carbamoyl)-1H-1,2,3-triazol-1-yl)phenyl)-2-(methylthio)pyrimidine-5-carboxamide] and `COc1cnc(C(=O)Nc2cc(-n3cc(C(=O)NCCCN4CCOCC4)nn3)ccc2N2CCN(C)CC2)c(OC)n1` [Example 36, 3,5-dimethoxy-N-(2-(4-methylpiperazin-1-yl)-5-(4-((3-morpholinopropyl)carbamoyl)-1H-1,2,3-triazol-1-yl)phenyl)pyrazine-2-carboxamide] cannot be ordered by IC50: > 10000 nM for the first, > 10000 nM for the second.

Compared with `Cc1cc(C(F)(F)F)ncc1C(=O)Nc1cc(-n2cc(C(=O)NCCCN3CCOCC3)nn2)ccc1N1CCN(C)CC1` [Example 31, 4-methyl-N-(2-(4-methylpiperazin-1-yl)-5-(4-((3-morpholinopropyl)carbamoyl)-1H-1,2,3-triazol-1-yl)phenyl)-6-(trifluoromethyl)nicotinamide], `CN1CCN(c2ccc(-n3cc(C(=O)NCCCN4CCOCC4)nn3)cc2NC(=O)c2ccc(Cl)nc2C(F)(F)F)CC1` [Example 37, 6-chloro-N-(2-(4-methylpiperazin-1-yl)-5-(4-((3-morpholinopropyl)carbamoyl)-1H-1,2,3-triazol-1-yl)phenyl)-2-(trifluoromethyl)nicotinamide] is lower in IC50: > 10000 nM for the first, 1960 nM for the second. The second is the more potent here.

`CN1CCN(c2ccc(-n3cc(C(=O)NCCCN4CCOCC4)nn3)cc2NC(=O)c2nnc(Cl)cc2Cl)CC1` [Example 32, 4,6-dichloro-N-(2-(4-methylpiperazin-1-yl)-5-(4-((3-morpholinopropyl)carbamoyl)-1H-1,2,3-triazol-1-yl)phenyl)pyridazine-3-carboxamide] and `CN1CCN(c2ccc(-n3cc(C(=O)NCCCN4CCOCC4)nn3)cc2NC(=O)c2nnc(Cl)cc2N)CC1` [Example 33, 4-amino-6-chloro-N-(2-(4-methylpiperazin-1-yl)-5-(4-((3-morpholinopropyl)carbamoyl)-1H-1,2,3-triazol-1-yl)phenyl)pyridazine-3-carboxamide] cannot be ordered by IC50: > 10000 nM for the first, > 10000 nM for the second.

`CN1CCN(c2ccc(-n3cc(C(=O)NCCCN4CCOCC4)nn3)cc2NC(=O)c2ncc(Cl)nc2Cl)CC1` [Example 34, 3,5-dichloro-N-[2-(4-methylpiperazin-1-yl)-5-[4-(3-morpholinopropylcarbamoyl)triazol-1-yl]phenyl]pyrazine-2-carboxamide] and `COc1cnc(C(=O)Nc2cc(-n3cc(C(=O)NCCCN4CCOCC4)nn3)ccc2N2CCN(C)CC2)c(Cl)n1` [Example 35, 3-chloro-5-methoxy-N-(2-(4-methylpiperazin-1-yl)-5-(4-((3-morpholinopropyl)carbamoyl)-1H-1,2,3-triazol-1-yl)phenyl)pyrazine-2-carboxamide] cannot be ordered by IC50: > 10000 nM for the first, > 10000 nM for the second.

`COc1ccc(C(=O)Nc2cc(-n3cc(C(=O)NCCCN4CCOCC4)nn3)ccc2N2CCN(C)CC2)c(C(F)(F)F)n1` [Example 38, 6-methoxy-N-(2-(4-methylpiperazin-1-yl)-5-(4-((3-morpholinopropyl)carbamoyl)-1H-1,2,3-triazol-1-yl)phenyl)-2-(trifluoromethyl)nicotinamide] and `CSc1ccc(C(=O)Nc2cc(-n3cc(C(=O)NCCCN4CCOCC4)nn3)ccc2N2CCN(C)CC2)c(C(F)(F)F)n1` [Example 43, N-(2-(4-methylpiperazin-1-yl)-5-(4-((3-morpholinopropyl)carbamoyl)-1H-1,2,3-triazol-1-yl)phenyl)-6-(methylthio)-2-(trifluoromethyl)nicotinamide] cannot be ordered by IC50: > 10000 nM for the first, > 10000 nM for the second.

First: CN1CCN(c2ccc(-n3cc(C(=O)NCCCN4CCOCC4)nn3)cc2NC(=O)c2ccc(C#N)nc2C(F)(F)F)CC1 [Example 39, 6-cyano-N-[2-(4-methylpiperazin-1-yl)-5-[4-(3-morpholinopropylcarbamoyl)triazol-1-yl]phenyl]-2-(trifluoromethyl)pyridine-3-carboxamide]
Second: COc1ccc(CNc2ccc(C(=O)Nc3cc(-n4cc(C(=O)NCCCN5CCOCC5)nn4)ccc3N3CCN(C)CC3)c(C(F)(F)F)n2)cc1 [Example 42, 6-((4-methoxybenzyl)amino)-N-(2-(4-methylpiperazin-1-yl)-5-(4-((3-morpholinopropyl)carbamoyl)-1H-1,2,3-triazol-1-yl)phenyl)-2-(trifluoromethyl)nicotinamide]
The IC50 of the first is lower: 1150 nM for the first, > 10000 nM for the second. The first is the more potent here.
